# Reference: US5677419A, “Cyclic vasoactive peptide analogs” (Hoffmann-La Roche Inc., priority 1994, dated 1997)
# Where a SMILES comes first, the peptide text is derived from it. Bridges are numbered along the chain shown (N, C = ends). [ ]: non-standard residue; d: D form. Phe(4-NH2) = Nc1ccc(C[C@H](N)C(=O)O)cc1; Nle = CCCC[C@H](N)C(=O)O
# What was measured:
# guinea pigs = assay: In vivo bronchodilator activity by tracheal instillation against histamine challenge; parameters: species or system guinea pig; settings: anesthetized male guinea pigs, inhibition of histamine (i.v.)-induced rise in tracheal pressure
# In short: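 Urethane-anaesthetised male Hartley guinea pigs (400-600 g) received compound in water by intratracheal instillation, then were paralysed, ventilated and challenged with histamine […] i.v. Tracheal pressure change gave % inhibition (≥3 animals/group); ED50 from log dose-response; duration as time until inhibition fell to 40%.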
# [1] = system: guinea pig tracheal smooth muscle; assay: Tracheal relaxant activity of VIP analogs on isolated guinea pig tracheal rings; assay type: cell-based; settings: cumulative concentration response, relaxation as % of maximum response to VIP (10^-6 M=100%), three tissues pooled, linear regression
# In short: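 Male guinea pig tracheal rings under 1.5 g resting tension in Krebs at 37° C, 95% O2/5% CO2, isometric tension. Cumulative concentration-response curves; relaxation as % of response to 10^-6 M VIP added at end; three tissues pooled, EC50 by linear regression.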
EC50 [1],Compound,"Bronchodilator activity of VIP analogs in guinea pigs, ED50 (guinea pigs)"
0.32 nM,"CCCC[C@H](NC(=O)[C@H](CCC(N)=O)NC(=O)[C@H](CCCCN)NC(=O)[C@H](CCCNC(=N)N)NC(=O)[C@H](CC(C)C)NC(=O)[C@H](CCCCN)NC(=O)[C@@H](NC(=O)[C@H](Cc1ccc(N)cc1)NC(=O)[C@H](CC(N)=O)NC(=O)[C@H](CCC(=O)O)NC(=O)[C@@H](NC(=O)[C@H](Cc1ccccc1)NC(=O)[C@@H](NC(=O)[C@H](C)NC(=O)[C@H](CC(=O)O)NC(=O)[C@H](CO)NC(=O)[C@H](Cc1c[nH]cn1)NC(C)=O)C(C)C)[C@@H](C)O)[C@@H](C)O)C(=O)N[C@@H](C)C(=O)N[C@@H](C)C(=O)N[C@@H](CCCCN)C(=O)N[C@H]1CCCCNC(=O)C[C@@H](C(=O)N[C@@H](CC(C)C)C(=O)N[C@@H](CCCCN)C(=O)N[C@@H](CCCCN)C(N)=O)NC(=O)[C@H](CC(N)=O)NC(=O)[C@H](CC(C)C)NC(=O)[C@H](Cc2ccc(O)cc2)NC1=O [SEQ ID NO:47, Ac-[Glu^8,p-NH2 -Phe^10,Lys^12,Nle^17,Ala^19,Asp^25,Leu^26,Lys^27,28]-VIP cyclo (Lys^21 →Asp^25)] (Ac-HSDAVFTEN[Phe(4-NH2)]TKLRKQ[Nle]AAKKYLNDLKK-NH2; lactam 21-25)",0.075 μg
0.45 nM,"CCCC[C@H](NC(=O)[C@H](CCC(N)=O)NC(=O)[C@H](CCCCN)NC(=O)[C@H](CCCNC(=N)N)NC(=O)[C@H](CC(C)C)NC(=O)[C@H](CCCCN)NC(=O)[C@@H](NC(=O)[C@H](Cc1ccc(O)cc1)NC(=O)[C@H](CC(N)=O)NC(=O)[C@H](CCC(=O)O)NC(=O)[C@@H](NC(=O)[C@H](Cc1ccccc1)NC(=O)[C@@H](NC(=O)[C@H](C)NC(=O)[C@H](CC(=O)O)NC(=O)[C@H](CO)NC(=O)[C@H](Cc1c[nH]cn1)NC(C)=O)C(C)C)[C@@H](C)O)[C@@H](C)O)C(=O)N[C@@H](C)C(=O)N[C@@H](C)C(=O)N[C@@H](CCCCN)C(=O)N[C@H]1CCCCNC(=O)C[C@@H](C(=O)N[C@@H](CC(C)C)C(=O)N[C@@H](CCCCN)C(=O)N[C@@H](CCCCN)C(N)=O)NC(=O)[C@H](CC(N)=O)NC(=O)[C@H](CC(C)C)NC(=O)[C@H](Cc2ccc(O)cc2)NC1=O [SEQ ID NO:40, Ac-[Glu^8,Lys^12,Nle^17,Ala^19,Asp^25,Leu^26,Lys^27,28]-VIP cyclo (Lys^21 →Asp^25)] (Ac-HSDAVFTENYTKLRKQ[Nle]AAKKYLNDLKK-NH2; lactam 21-25)",0.022 μg
0.96 nM,"CCCC[C@H](NC(=O)[C@H](CCC(N)=O)NC(=O)[C@H](CCCCN)NC(=O)[C@H](CCCNC(=N)N)NC(=O)[C@H](CC(C)C)NC(=O)[C@H](CCCCN)NC(=O)[C@@H](NC(=O)[C@H](Cc1ccc(N)cc1)NC(=O)[C@H](CC(N)=O)NC(=O)[C@H](CC(=O)O)NC(=O)[C@@H](NC(=O)[C@H](Cc1ccccc1)NC(=O)[C@@H](NC(=O)[C@H](C)NC(=O)[C@H](CC(=O)O)NC(=O)[C@H](CO)NC(=O)[C@H](Cc1c[nH]cn1)NC(C)=O)C(C)C)[C@@H](C)O)[C@@H](C)O)C(=O)N[C@@H](C)C(=O)N[C@@H](C)C(=O)N[C@@H](CCCCN)C(=O)N[C@H]1CCCCNC(=O)C[C@@H](C(=O)N[C@H](C(=O)N[C@@H](CC(C)C)C(=O)N[C@H](C(N)=O)[C@@H](C)O)C(C)C)NC(=O)[C@H](CC(N)=O)NC(=O)[C@H](CC(C)C)NC(=O)[C@H](Cc2ccc(O)cc2)NC1=O [SEQ ID NO:54, Ac-[p-NH2 -Phe^10,Lys^12,Nle^17,Ala^19,Asp^25,Val^26,Thr^28]-VIP cyclo (Lys^21 →Asp^25)] (Ac-HSDAVFTDN[Phe(4-NH2)]TKLRKQ[Nle]AAKKYLNDVLT-NH2; lactam 21-25)",0.35 μg
0.61 nM,"CCCC[C@H](NC(=O)[C@H](CCC(N)=O)NC(=O)[C@H](CCCCN)NC(=O)[C@H](CCCNC(=N)N)NC(=O)[C@H](CC(C)C)NC(=O)[C@H](CCCCN)NC(=O)[C@@H](NC(=O)[C@H](Cc1ccc(O)cc1)NC(=O)[C@H](CC(N)=O)NC(=O)[C@H](CCC(=O)O)NC(=O)[C@@H](NC(=O)[C@H](Cc1ccccc1)NC(=O)[C@@H](NC(=O)[C@H](C)NC(=O)[C@H](CC(=O)O)NC(=O)[C@H](CO)NC(=O)[C@H](Cc1c[nH]cn1)NC(C)=O)C(C)C)[C@@H](C)O)[C@@H](C)O)C(=O)N[C@@H](C)C(=O)N[C@@H](C)C(=O)N[C@@H](CCCCN)C(=O)N[C@H]1CCCCNC(=O)C[C@@H](C(=O)N[C@@H](CC(C)C)C(=O)N[C@@H](CCCCN)C(=O)N[C@@H](CCCCN)C(=O)N[C@@H](C)C(=O)N[C@@H](C)C(=O)N[C@@H](C)C(N)=O)NC(=O)[C@H](CC(N)=O)NC(=O)[C@H](CC(C)C)NC(=O)[C@H](Cc2ccc(O)cc2)NC1=O [SEQ ID NO:42, Ac-[Glu^8,Lys^12,Nle^17,Ala^19,Asp^25,Leu^26,Lys^27,28,Ala^29-31]-VIP cyclo (Lys^21 →Asp^25)] (Ac-HSDAVFTENYTKLRKQ[Nle]AAKKYLNDLKKAAA-NH2; lactam 21-25)",0.072 μg
2.4 nM,"CCCC[C@H](NC(=O)[C@H](C)NC(=O)[C@H](CCCCN)NC(=O)[C@H](CCCNC(=N)N)NC(=O)[C@H](CC(C)C)NC(=O)[C@H](CCCCN)NC(=O)[C@@H](NC(=O)[C@H](Cc1ccc(O)cc1)NC(=O)[C@H](CC(N)=O)NC(=O)[C@H](C)NC(=O)[C@@H](NC(=O)[C@H](Cc1ccccc1)NC(=O)[C@@H](NC(=O)[C@H](C)NC(=O)[C@H](CC(=O)O)NC(=O)[C@H](CO)NC(=O)[C@H](Cc1c[nH]cn1)NC(C)=O)C(C)C)[C@@H](C)O)[C@@H](C)O)C(=O)N[C@@H](C)C(=O)N[C@@H](C)C(=O)N[C@@H](CCCCN)C(=O)N[C@H]1CCCCNC(=O)C[C@@H](C(=O)N[C@@H](CC(C)C)C(=O)N[C@@H](CCCCN)C(=O)N[C@@H](CCCCN)C(N)=O)NC(=O)[C@H](C)NC(=O)[C@H](CC(C)C)NC(=O)[C@H](Cc2ccc(O)cc2)NC1=O [SEQ ID NO:61, Ac-[Ala^8,Lys^12,Ala^16,Nle^17,Ala^19,Ala^24,Asp^25,Leu^26,Lys^27,28]-VIP cyclo (Lys^21 →Asp^25)] (Ac-HSDAVFTANYTKLRKA[Nle]AAKKYLADLKK-NH2; lactam 21-25)",0.045 μg
37 nM,"CCCC[C@H](NC(=O)[C@@H]1CCC(=O)NCCCC[C@H](NC(=O)[C@@H](NC(=O)[C@H](Cc2ccc(O)cc2)NC(=O)[C@H](CC(N)=O)NC(=O)[C@H](CC(=O)O)NC(=O)[C@@H](NC(=O)[C@H](Cc2ccccc2)NC(=O)[C@@H](NC(=O)[C@H](C)NC(=O)[C@H](CC(=O)O)NC(=O)[C@H](CO)NC(=O)[C@H](Cc2c[nH]cn2)NC(C)=O)C(C)C)[C@@H](C)O)[C@@H](C)O)C(=O)N[C@@H](CC(C)C)C(=O)N[C@@H](CCCNC(=N)N)C(=O)N[C@@H](CCCCN)C(=O)N1)C(=O)N[C@@H](C)C(=O)N[C@H](C(=O)N[C@@H](CCCCN)C(=O)N[C@@H](CCCCN)C(=O)N[C@@H](Cc1ccc(O)cc1)C(=O)N[C@@H](CC(C)C)C(=O)N[C@@H](CC(N)=O)C(=O)N[C@@H](CO)C(=O)N[C@H](C(=O)N[C@@H](CC(C)C)C(=O)N[C@H](C(N)=O)[C@@H](C)O)C(C)C)C(C)C [SEQ ID NO:26, Ac-[Lys^12,Glu^16,Nle^17,Val^26,Thr^28]-VIP cyclo (Lys^12 →Glu^16)] (Ac-HSDAVFTDNYTKLRKE[Nle]AVKKYLNSVLT-NH2; lactam 12-16)",39 μg
0.1 nM,"CC(=O)N[C@@H](Cc1c[nH]cn1)C(=O)N[C@@H](CO)C(=O)N[C@@H](CC(=O)O)C(=O)N[C@@H](C)C(=O)N[C@H](C(=O)N[C@@H](Cc1ccccc1)C(=O)N[C@H](C(=O)N[C@@H](C)C(=O)N[C@@H](CC(N)=O)C(=O)N[C@@H](Cc1ccc(O)cc1)C(=O)N[C@H](C(=O)N[C@@H](CCCCN)C(=O)N[C@@H](CC(C)C)C(=O)N[C@@H](CCCNC(=N)N)C(=O)N[C@@H](CCCCN)C(=O)N[C@@H](C)C(=O)N[C@@H](C)C(=O)N[C@@H](C)C(=O)N[C@@H](C)C(=O)N[C@@H](CCCCN)C(=O)N[C@H]1CCCCNC(=O)C[C@@H](C(=O)N[C@@H](CC(C)C)C(=O)N[C@@H](CCCCN)C(=O)N[C@@H](CCCCN)C(N)=O)NC(=O)[C@H](C)NC(=O)[C@H](CC(C)C)NC(=O)[C@H](Cc2ccc(O)cc2)NC1=O)[C@@H](C)O)[C@@H](C)O)C(C)C [SEQ ID NO:62, Ac-[Ala^8,Lys^12,Ala^16,17,19,Ala^24,Asp^25,Leu^26,Lys^27,28]-VIP cyclo (Lys^21 →Asp^25)] (Ac-HSDAVFTANYTKLRKAAAAKKYLADLKK-NH2; lactam 21-25)",0.24 μg
0.35 nM,"CCCC[C@H](NC(=O)[C@H](CCC(N)=O)NC(=O)[C@H](CCCCN)NC(=O)[C@H](CCCNC(=N)N)NC(=O)[C@H](CC(C)C)NC(=O)[C@H](CCCCN)NC(=O)[C@@H](NC(=O)[C@H](Cc1ccc(O)cc1)NC(=O)[C@H](CC(N)=O)NC(=O)[C@H](CCC(=O)O)NC(=O)[C@@H](NC(=O)[C@H](Cc1ccccc1)NC(=O)[C@@H](NC(=O)[C@H](C)NC(=O)[C@H](CC(=O)O)NC(=O)[C@H](CO)NC(=O)[C@H](Cc1c[nH]cn1)NC(C)=O)C(C)C)[C@@H](C)O)[C@@H](C)O)C(=O)N[C@@H](C)C(=O)N[C@@H](C)C(=O)N[C@@H](CCCCN)C(=O)N[C@H]1CCCCNC(=O)C[C@@H](C(=O)N[C@@H](CC(C)C)C(=O)N[C@@H](CCCCN)C(=O)N[C@@H](CCCCN)C(=O)NCC(=O)NCC(=O)N[C@H](C(N)=O)[C@@H](C)O)NC(=O)[C@H](CC(N)=O)NC(=O)[C@H](CC(C)C)NC(=O)[C@H](Cc2ccc(O)cc2)NC1=O [SEQ ID NO:52, Ac-[Glu^8,Lys^12,Nle^17,Ala^19,Asp^25,Leu^26,Lys^27,28,Gly^29,30,Thr^31]-VIP cyclo (Lys^21 →Asp^25)] (Ac-HSDAVFTENYTKLRKQ[Nle]AAKKYLNDLKKGGT-NH2; lactam 21-25)",0.1 μg
